Data published in ChEMBL document CHEMBL1681641, “Discovery of substituted phenyl urea derivatives as novel long-acting β2-adrenoreceptor agonists” (Bioorg Med Chem Lett, 2011).
Values after ≈ are worked out from the molar mass of the structure shown.

Key:
[1] = biological target: Beta-2 adrenergic receptor (Cavia porcellus, UniProt Q8K4Z4); test: Agonist activity at beta2 adrenoceptor in guinea pig tracheal rings assessed as relaxation of tracheal smooth muscle; assay type: functional, tissue-based, Trachea
[2] = biological target: Beta-1 adrenergic receptor (Rattus norvegicus, UniProt P18090); test: Agonist activity at beta1 adrenoceptor in rat left atria assessed as induction of ionotropic effect; assay type: functional
[3] = tested on: Cavia porcellus; test: Bronchocoprotective activity in guinea pig assessed as inhibition of acetylcholine-induced bronchoconstriction administered by aerosol after 4 hrs; assay type: functional, organism-based
[4] = tested on: Cavia porcellus; test: Bronchocoprotective activity in guinea pig assessed as inhibition of acetylcholine-induced bronchoconstriction administered by aerosol after 24 hrs; assay type: functional, organism-based
[5] = Bronchodialatory activity in guinea pig trachea assessed as tone recovery measured after 1 hr of drug washout; assay type: functional, Cavia porcellus; set-up: concentration or dose not given beside the values

Sequence of Beta-2 adrenergic receptor (Q8K4Z4 whole entry): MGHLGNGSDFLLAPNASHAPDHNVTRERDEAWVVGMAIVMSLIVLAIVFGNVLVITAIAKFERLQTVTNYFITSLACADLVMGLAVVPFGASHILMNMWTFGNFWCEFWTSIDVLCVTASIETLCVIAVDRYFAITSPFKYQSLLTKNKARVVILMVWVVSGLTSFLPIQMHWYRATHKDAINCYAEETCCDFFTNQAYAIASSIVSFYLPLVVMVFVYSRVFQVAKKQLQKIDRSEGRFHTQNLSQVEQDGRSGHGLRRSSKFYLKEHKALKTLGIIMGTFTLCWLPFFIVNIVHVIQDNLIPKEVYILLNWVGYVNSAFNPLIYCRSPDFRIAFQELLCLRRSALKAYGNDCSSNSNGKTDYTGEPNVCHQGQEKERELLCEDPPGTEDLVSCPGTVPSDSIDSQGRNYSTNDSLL
Sequence of Beta-1 adrenergic receptor (P18090 whole entry): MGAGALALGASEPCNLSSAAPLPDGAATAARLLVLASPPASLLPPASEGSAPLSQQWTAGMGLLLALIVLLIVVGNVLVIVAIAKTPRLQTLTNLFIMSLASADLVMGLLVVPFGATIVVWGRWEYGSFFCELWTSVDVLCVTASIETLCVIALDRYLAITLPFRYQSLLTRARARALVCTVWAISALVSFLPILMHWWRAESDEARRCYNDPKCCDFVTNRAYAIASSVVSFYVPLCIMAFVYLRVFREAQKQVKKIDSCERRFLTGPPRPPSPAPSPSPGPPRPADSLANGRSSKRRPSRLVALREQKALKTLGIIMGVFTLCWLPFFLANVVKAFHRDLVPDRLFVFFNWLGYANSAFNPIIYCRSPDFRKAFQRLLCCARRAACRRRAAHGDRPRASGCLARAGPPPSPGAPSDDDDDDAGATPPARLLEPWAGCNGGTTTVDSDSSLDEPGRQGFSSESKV

EC50 [1]	EC50 [2]	IC50 [3]	IC50 [4]	Structure (SMILES)	Activity [5]
0.07 nM	> 10000 nM	0.2 µg/mL (≈ 0.436 µM)	3 µg/mL (≈ 6.54 µM)	O=C(Nc1ccccc1)Nc1cccc(CCNCC(O)c2ccc(O)c3[nH]c(=O)ccc23)c1 (stereo unspecified)	12%
0.2 nM	900 nM	0.3 µg/mL (≈ 0.635 µM)	> 100 µg/mL	O=C(NCc1ccccc1)Nc1cccc(CCNCC(O)c2ccc(O)c3[nH]c(=O)ccc23)c1 (stereo unspecified)	15%
0.09 nM	> 10000 nM	2 µg/mL (≈ 4.11 µM)	> 10 µg/mL	O=C(NCCc1ccccc1)Nc1cccc(CCNCC(O)c2ccc(O)c3[nH]c(=O)ccc23)c1 (stereo unspecified)	9%
0.05 nM	> 10000 nM	1 µg/mL (≈ 2 µM)	3 µg/mL (≈ 5.99 µM)	O=C(NCCCc1ccccc1)Nc1cccc(CCNCC(O)c2ccc(O)c3[nH]c(=O)ccc23)c1 (stereo unspecified)	2%
0.13 nM				NC(=O)c1cccc(CNC(=O)Nc2cccc(CCNCC(O)c3ccc(O)c4[nH]c(=O)ccc34)c2)c1 (stereo unspecified)	52%
0.2 nM	550 nM			COc1ccccc1CNC(=O)Nc1cccc(CCNCC(O)c2ccc(O)c3[nH]c(=O)ccc23)c1 (stereo unspecified)	23%
0.2 nM	6300 nM			O=C(NCc1ccc(F)cc1)Nc1cccc(CCNCC(O)c2ccc(O)c3[nH]c(=O)ccc23)c1 (stereo unspecified)	16%
0.2 nM	1600 nM	4 µg/mL (≈ 7.39 µM)	> 100 µg/mL	O=C(NCc1c(Cl)cccc1Cl)Nc1cccc(CCNCC(O)c2ccc(O)c3[nH]c(=O)ccc23)c1 (stereo unspecified)	4%

Further lines, the molecule ahead of its results:

Structure (SMILES)	EC50 [1]	EC50 [2]	IC50 [3]	IC50 [4]	Activity [5]
O=C(Nc1cccc(CCNCC(O)c2ccc(O)c3[nH]c(=O)ccc23)c1)NC(c1ccccc1)c1ccccc1 (stereo unspecified)	0.2 nM	8890 nM	1 µg/mL (≈ 1.82 µM)	1.5 µg/mL (≈ 2.73 µM)	2%
O=C(Nc1cccc(CCNCC(O)c2ccc(O)c3[nH]c(=O)ccc23)c1)Nc1ccccc1-c1ccccc1 (stereo unspecified)	0.7 nM	5770 nM	3 µg/mL (≈ 5.61 µM)	7 µg/mL (≈ 13.1 µM)	4%
O=C(NCC12CC3CC(CC(C3)C1)C2)Nc1cccc(CCNCC(O)c2ccc(O)c3[nH]c(=O)ccc23)c1 (stereo unspecified)	3.2 nM	296 nM			8%
O=C(Nc1cccc(CCNCC(O)c2ccc(O)c3[nH]c(=O)ccc23)c1)Nc1cccc(Oc2ccccc2)c1 (stereo unspecified)	1 nM	10000 nM			0%
CC(C)(C)c1ccc(CNC(=O)Nc2cccc(CCNCC(O)c3ccc(O)c4[nH]c(=O)ccc34)c2)cc1 (stereo unspecified)	0.9 nM				5%
NC(=O)C(c1ccccc1)(c1ccccc1)[C@@H]1CCN(CCc2ccc3c(c2)CCO3)C1 [DARIFENACIN]	1 nM	2310 nM	5 µg/mL (≈ 11.7 µM)	12 µg/mL (≈ 28.1 µM)	0%
